This is an account of results in ChEMBL document CHEMBL2384979, “Synthesis of the (1→6)-linked thiodisaccharide of galactofuranose: inhibitory activity against a β-galactofuranosidase” (Bioorg Med Chem, 2013).

Test [1] can be described thus: Inhibition of Penicillium fellutanum exo-beta-galactofuranosidase assessed as 4-Nitrophenyl beta-D-galactofuranoside conversion to 4-nitrophenol after 1.5 hrs by spectrophotometric analysis.
The nature of test [2]: Competitive inhibition of Penicillium fellutanum exo-beta-galactofuranosidase assessed as 4-Nitrophenyl beta-D-galactofuranoside conversion to 4-nitrophenol after 1.5 hrs by Lineweaver-Burk plot analysis.

For the molecule `O=[N+]([O-])c1ccc(S[C@@H]2O[C@@H]([C@H](O)CO)[C@H](O)[C@H]2O)cc1`, the 50% inhibitory concentration (IC50) in test [1] was found to be 600 µM.

For `O=C1O[C@@H]([C@H](O)CO)[C@H](O)[C@H]1O`, the inhibition constant (Ki) in test [2] amounted to 100 µM.

Take `Nc1ccc(S[C@@H]2O[C@@H]([C@H](O)CO)[C@H](O)[C@H]2O)cc1`: the IC50 in test [1] is 80 µM.

Consider `CO[C@@H]1O[C@@H]([C@H](O)CS[C@@H]2O[C@@H]([C@H](O)CO)[C@H](O)[C@H]2O)[C@H](O)[C@H]1O`, for which the Ki in test [2] stood at 3620 µM.

Broadly, the IC50 is the concentration that gives 50% inhibition. By Ki is commonly meant the equilibrium dissociation constant of an inhibitor or competing ligand from its target.
